# Reference: PubChem BioAssay AID330 (DTP/NCI, 2004)
# “And” between values parts separate entries of the source, which are not always exact repeats. Equal entries are not always repeated. Toxic doses and inconclusive results are not listed.
# System: P388 leukemia ip, CD2F1 mice, survival T/C
# Test: NCI In Vivo Anticancer Drug Screen. Data for tumor model P388 Leukemia (intraperitoneal) in CD2F1 (CDF1) mice
# Conditions: endpoint: median survival time, higher = longer survival
# Outline: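 Mice carrying the transplanted tumor received test compound or vehicle. Survival was recorded in each group, and the value is the treated-group measurement divided by that of the vehicle-treated control group.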
# [1] = dose: 60.0 mg/kg/injection, schedule: Q01DX005 (ip), vehicle: saline with Tween-80
# [2] = dose: 120.0 mg/kg/injection, schedule: Q01DX005 (ip), vehicle: saline with Tween-80
# [3] = dose: 240.0 mg/kg/injection, schedule: Q01DX005 (ip), vehicle: saline with Tween-80
# [4] = dose: 50.0 mg/kg/injection, schedule: Q01DX005 (ip), vehicle: saline with Tween-80
# [5] = dose: 100.0 mg/kg/injection, schedule: Q01DX005 (ip), vehicle: saline with Tween-80
# [6] = dose: 200.0 mg/kg/injection, schedule: Q01DX005 (ip), vehicle: saline with Tween-80
# [7] = dose: 100.0 mg/kg/injection, schedule: Q04DX002 (ip), vehicle: saline with Tween-80
# [8] = dose: 200.0 mg/kg/injection, schedule: Q04DX002 (ip), vehicle: saline with Tween-80
# [9] = dose: 50.0 mg/kg/injection, schedule: Q01DX009 (ip), vehicle: saline with Tween-80
# [10] = dose: 100.0 mg/kg/injection, schedule: Q01DX009 (ip), vehicle: saline with Tween-80
# [11] = dose: 200.0 mg/kg/injection, schedule: Q01DX009 (ip), vehicle: saline with Tween-80
# [12] = dose: 50.0 mg/kg/injection, schedule: Q01DX005 (ip), vehicle: saline
structure (smiles),measurement,setting,value
COc1cc2c(cc1OC)C1C(CO)c3ccc(OC)c(OC)c3CN1CC2 (stereo not given),T/C,"dose: 50.0 mg/kg/injection, schedule: Q04DX003 (ip), vehicle: distilled water + Tween-80",96 % of control
same,T/C,"dose: 100.0 mg/kg/injection, schedule: Q04DX003 (ip), vehicle: distilled water + Tween-80",93 % of control
same,T/C,"dose: 200.0 mg/kg/injection, schedule: Q04DX003 (ip), vehicle: distilled water + Tween-80",87 % of control
same,T/C,"dose: 400.0 mg/kg/injection, schedule: Q04DX003 (ip), vehicle: distilled water + Tween-80",91 % of control
Cc1ccc(S(=O)(=O)NN=c2cccccc2)cc1,T/C,"dose: 100.0 mg/kg/injection, schedule: Q01DX001 (ip), vehicle: DMSO",101 % of control
same,T/C,"dose: 200.0 mg/kg/injection, schedule: Q01DX001 (ip), vehicle: DMSO",97 % of control
Cc1cccc(-n2c(=O)c3[nH]c4ccccc4sc=3c2=O)c1,T/C,[1],104 % of control
same,T/C,[2],107 % of control
same,T/C,[3],92 % of control
CC(C)C(NC(=O)C(CCCCN)N(C(=O)OCc1ccccc1)C(=O)OCc1ccccc1)C(=O)O (stereo not given),T/C,[4],100 % of control
same,T/C,[5],93 % of control
same,T/C,[6],92 % of control
Cc1cc(C)n(C2=NC3(C)NC(=O)NC3(C)N2)n1 (stereo not given),T/C,"dose: 50.0 mg/kg/injection, schedule: Q04DX002 (ip), vehicle: saline with Tween-80",98 % of control
same,T/C,[7],94 % of control
same,T/C,[8],98 % of control
O=C1CCC(=O)N1CNCCc1cc(Cl)cc(Cl)c1O,T/C,[9],102 % of control
same,T/C,[10],103 % of control
same,T/C,[11],94 % of control
CCCCCCC(=O)/C=C/c1ccc(Br)cc1,T/C,[4],104 % of control
same,T/C,[5],104 % of control
same,T/C,[6],97 % of control
CCOc1cccc(Cc2c[nH]c(=O)[nH]c2=O)c1,T/C,[1],94 % of control
same,T/C,[2],92 % of control
same,T/C,[3],90 % of control
CSC(=S)N/N=C/c1cccn1C,T/C,[9],100 % of control
same,T/C,[10],91 % of control
same,T/C,[11],115 % of control
O=C1OC(=O)C2CCC12 (stereo not given),T/C,[9],106 % of control
same,T/C,"dose: 60.0 mg/kg/injection, schedule: Q01DX005 (ip), vehicle: saline",93 % of control
same,T/C,[10],106 % of control
same,T/C,"dose: 120.0 mg/kg/injection, schedule: Q01DX005 (ip), vehicle: saline",89 % of control
same,T/C,[11],97 % of control
same,T/C,"dose: 240.0 mg/kg/injection, schedule: Q01DX005 (ip), vehicle: saline",86 % of control
O=S(=O)(O)Nc1ccccc1,T/C,"dose: 12.5 mg/kg/injection, schedule: Q01DX009 (ip), vehicle: water",100 % of control
same,T/C,"dose: 25.0 mg/kg/injection, schedule: Q01DX009 (ip), vehicle: water",104 % of control
same,T/C,"dose: 50.0 mg/kg/injection, schedule: Q01DX009 (ip), vehicle: water",99 % of control
same,T/C,"dose: 100.0 mg/kg/injection, schedule: Q01DX009 (ip), vehicle: water",100 % of control
same,T/C,"dose: 200.0 mg/kg/injection, schedule: Q01DX009 (ip), vehicle: water",101 % of control
COC(=O)c1ccc(SCC2(CCN3C(=O)c4ccccc4C3=O)OCCO2)cc1,T/C,"dose: 100.0 mg/kg/injection, schedule: Q04DX003 (ip), vehicle: Klucel (hydroxypropylcellulose) (HPC)",97 % of control
same,T/C,"dose: 200.0 mg/kg/injection, schedule: Q04DX003 (ip), vehicle: Klucel (hydroxypropylcellulose) (HPC)",96 % of control
same,T/C,"dose: 400.0 mg/kg/injection, schedule: Q04DX003 (ip), vehicle: Klucel (hydroxypropylcellulose) (HPC)",88 % of control
COc1ccc(C2c3cc4c(cc3OC(O)C2C)OCO4)c(OC)c1 (stereo not given),T/C,[7],97 % of control
same,T/C,[8],97 % of control
same,T/C,"dose: 400.0 mg/kg/injection, schedule: Q04DX002 (ip), vehicle: saline with Tween-80",95 % of control
COc1ccc(/C=C\c2cc(OC)c(OC)c(OC)c2)c(O)c1O,T/C,"dose: 3.12 mg/kg/injection, schedule: Q01DX009 (ip), vehicle: saline + Tween-80 + alcohol",124 % of control
same,T/C,"dose: 12.5 mg/kg/injection, schedule: Q01DX009 (ip), vehicle: saline + Tween-80 + alcohol",104 % of control and 97 % of control
same,T/C,"dose: 22.0 mg/kg/injection, schedule: Q01DX009 (ip), vehicle: saline + alcohol",95 % of control
same,T/C,"dose: 50.0 mg/kg/injection, schedule: Q01DX009 (ip), vehicle: saline + Tween-80 + alcohol",109 % of control
O=C1NC2(CCCC2)C(=O)N1CCCN(CCCl)CCCl,T/C,"dose: 1.5 mg/kg/injection, schedule: Q01DX005 (ip), vehicle: saline",173 % of control
same,T/C,"dose: 3.0 mg/kg/injection, schedule: Q01DX005 (ip), vehicle: saline",176 % of control and 185 % of control
same,T/C,"dose: 6.0 mg/kg/injection, schedule: Q01DX005 (ip), vehicle: saline",179 % of control and 204 % of control
same,T/C,"dose: 12.0 mg/kg/injection, schedule: Q01DX005 (ip), vehicle: saline",203 % of control and 288 % of control
COc1ccc(CCCNC(=O)Cc2ccccc2)cc1OC,T/C,[9],92 % of control
same,T/C,[10],92 % of control
same,T/C,[11],91 % of control
CCC1NC(C)(C)CC1=C(C)C (stereo not given),T/C,"dose: 6.25 mg/kg/injection, schedule: Q04DX003 (ip), vehicle: saline",105 % of control
same,T/C,"dose: 12.5 mg/kg/injection, schedule: Q04DX003 (ip), vehicle: saline",110 % of control
same,T/C,"dose: 25.0 mg/kg/injection, schedule: Q04DX003 (ip), vehicle: saline",110 % of control
CCOC(=C[P+](c1ccccc1)(c1ccccc1)c1ccccc1)OCC,T/C,"dose: 0.39 mg/kg/injection, schedule: Q01DX005 (ip), vehicle: water",98 % of control and 103 % of control
same,T/C,"dose: 0.78 mg/kg/injection, schedule: Q01DX005 (ip), vehicle: water",107 % of control and 96 % of control
same,T/C,"dose: 1.56 mg/kg/injection, schedule: Q01DX005 (ip), vehicle: water",102 % of control and 110 % of control and 121 % of control
same,T/C,"dose: 3.12 mg/kg/injection, schedule: Q01DX005 (ip), vehicle: water",113 % of control and 118 % of control and 124 % of control
same,T/C,"dose: 6.25 mg/kg/injection, schedule: Q01DX005 (ip), vehicle: water",109 % of control
NC(CSCCCS(=O)(=O)O)C(=O)O (stereo not given),T/C,[12],101 % of control
same,T/C,"dose: 100.0 mg/kg/injection, schedule: Q01DX005 (ip), vehicle: saline",98 % of control
same,T/C,"dose: 200.0 mg/kg/injection, schedule: Q01DX005 (ip), vehicle: saline",100 % of control
COc1ccccc1N(CCCO)C(=S)Nc1ccccc1,T/C,"dose: 25.0 mg/kg/injection, schedule: Q01DX009 (ip), vehicle: other",105 % of control
same,T/C,"dose: 50.0 mg/kg/injection, schedule: Q01DX009 (ip), vehicle: other",110 % of control
same,T/C,"dose: 100.0 mg/kg/injection, schedule: Q01DX009 (ip), vehicle: other",122 % of control
same,T/C,"dose: 200.0 mg/kg/injection, schedule: Q01DX009 (ip), vehicle: other",111 % of control
same,T/C,"dose: 400.0 mg/kg/injection, schedule: Q01DX009 (ip), vehicle: other",111 % of control
C/C(=N\OC(=O)c1c(-c2c(Cl)cccc2Cl)noc1C)c1ccccc1O,T/C,"dose: 50.0 mg/kg/injection, schedule: Q01DX009 (ip), vehicle: saline",91 % of control
same,T/C,"dose: 100.0 mg/kg/injection, schedule: Q01DX009 (ip), vehicle: saline",94 % of control
same,T/C,"dose: 200.0 mg/kg/injection, schedule: Q01DX009 (ip), vehicle: saline",93 % of control
CCCCN(CCCC)CC(O)c1c(OC)ccc2ccccc12 (stereo not given),T/C,"dose: 12.5 mg/kg/injection, schedule: Q01DX005 (ip), vehicle: saline",100 % of control
same,T/C,"dose: 25.0 mg/kg/injection, schedule: Q01DX005 (ip), vehicle: saline",98 % of control
same,T/C,[4],119 % of control
same,T/C,[12],105 % of control
CN=C(N)c1ccc(N=C(N)c2ccc(C(N)=Nc3ccc(C(N)=NC)cc3)cc2)cc1,T/C,"dose: 1.3 mg/kg/injection, schedule: Q01DX005 (iv), vehicle: saline",100 % of control
same,T/C,"dose: 5.0 mg/kg/injection, schedule: Q04DX003 (ip), vehicle: saline",100 % of control
same,T/C,"dose: 6.48 mg/kg/injection, schedule: Q04DX002 (ip), vehicle: saline",92 % of control
same,T/C,"dose: 10.0 mg/kg/injection, schedule: Q04DX003 (ip), vehicle: saline",100 % of control
same,T/C,"dose: 10.8 mg/kg/injection, schedule: Q01DX005 (ip), vehicle: water",120 % of control
same,T/C,"dose: 20.0 mg/kg/injection, schedule: Q01DX009 (ip), vehicle: saline",172 % of control
same,T/C,"dose: 30.0 mg/kg/injection, schedule: Q01DX005 (ip), vehicle: saline",163 % of control
